Article PMC7413254 (Nature Communications, 2020)

Legend:
Type in all cases: cell-based
PfCRT^Dd2 [1] = molecular target: T1, PfCRT^Dd2 (Plasmodium falciparum, UniProt Q9N623, A220S/I356T/K76T/M74I/N326S/N75E/Q271E/R371I); test: [3H]CQ uptake into Xenopus oocytes, cis-inhibition by unlabelled solute; conditions: PfCRTDd2 oocytes, background [3H]CQ accumulation subtracted, normalised to oocyte type control
Outline: (§1)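 PfCRT-expressing and control oocytes: ND96 pH 5.5 → 1.5 h at 27.5 °C → ice-cold ND96 wash → 10% SDS lysis → scintillation count.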

PfCRT^Ecu1110 [2] = molecular target: T2, PfCRT^Ecu1110 (Plasmodium falciparum, UniProt Q9N623, A220S/I356L/K76T/N326D); test: as above; conditions: PfCRTEcu1110 oocytes, background [3H]CQ accumulation subtracted, normalised to oocyte type control
Outline: as §1

PfCRT^Dd2 [3] = molecular target: T1, PfCRT^Dd2; test: cell-based; conditions: PfCRTDd2 oocytes, normalised to oocyte type control
Outline: (§2)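 Transport measured in Xenopus oocytes expressing the transporters, 1.5 h at 27.5 °C in ND96 pH 5.5 unless noted. For trans-stimulation, VF-6 injected in 25 nL ND96 at pH 5.0–7.0 or Na^+-free (choline) buffer; intracellular levels based on ~400 nL oocyte volume. Ten oocytes per treatment, ≥4 experiments.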

PfCRT^3D7 = PfCRT^3D7 (Plasmodium falciparum, UniProt Q8IBZ9); test: cell-based; conditions: for PfCRT-mediated [3H]CQ transport, trans-stimulation (% PfCRT3D7 control): PfCRT3D7 oocytes, normalised to oocyte type control; for [3H]CQ transport, PfCRT3D7 (% PfCRT3D7 control): trans-stimulation, solute 45 mM injected (estimated intracellular)
Outline: as §2

PfCRT^Ecu1110 [4] = molecular target: T2, PfCRT^Ecu1110; test: cell-based; conditions: PfCRTEcu1110 oocytes, normalised to oocyte type control
Outline: as §2

PfNT1 = molecular target: T3, PfNT1 (Plasmodium falciparum, UniProt Q8IDM6); test: cell-based; conditions: trans-stimulation, solute 45 mM injected (estimated intracellular)
T3 construct: expressed in transfected cells; host or cells: Xenopus laevis oocytes (stage V-VI), cRNA-injected
Outline: as §2

[5] = [test solute]i = 5 mM (intracellular)
[6] = [test solute]i = 45 mM (intracellular; 30 mM for some solutes due to solubility)

T2 sequence (Q9N623 whole entry A220S/I356L/K76T/N326D): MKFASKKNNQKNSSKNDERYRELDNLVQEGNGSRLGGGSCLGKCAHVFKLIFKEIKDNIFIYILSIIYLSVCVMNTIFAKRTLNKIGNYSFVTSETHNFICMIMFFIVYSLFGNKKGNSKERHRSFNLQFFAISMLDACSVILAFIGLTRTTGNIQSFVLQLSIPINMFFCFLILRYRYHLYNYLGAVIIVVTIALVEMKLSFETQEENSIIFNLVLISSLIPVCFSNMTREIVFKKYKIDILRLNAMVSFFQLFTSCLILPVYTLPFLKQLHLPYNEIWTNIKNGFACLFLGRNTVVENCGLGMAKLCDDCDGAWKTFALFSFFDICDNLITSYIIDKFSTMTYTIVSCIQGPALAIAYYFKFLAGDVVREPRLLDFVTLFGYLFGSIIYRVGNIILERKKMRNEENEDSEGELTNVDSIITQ
T1 sequence (Q9N623 whole entry A220S/I356T/K76T/M74I/N326S/N75E/Q271E/R371I): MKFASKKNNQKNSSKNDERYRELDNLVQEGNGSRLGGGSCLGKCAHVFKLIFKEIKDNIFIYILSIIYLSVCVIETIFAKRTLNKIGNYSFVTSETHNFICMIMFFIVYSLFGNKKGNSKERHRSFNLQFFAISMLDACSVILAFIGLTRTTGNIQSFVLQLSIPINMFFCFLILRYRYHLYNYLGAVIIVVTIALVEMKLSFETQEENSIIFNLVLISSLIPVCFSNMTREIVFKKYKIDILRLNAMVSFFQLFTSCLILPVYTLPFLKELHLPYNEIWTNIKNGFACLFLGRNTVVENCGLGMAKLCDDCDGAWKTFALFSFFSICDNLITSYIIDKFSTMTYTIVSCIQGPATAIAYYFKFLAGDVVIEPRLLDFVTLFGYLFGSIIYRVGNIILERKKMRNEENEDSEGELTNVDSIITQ
T3 sequence (Q8IDM6 whole entry): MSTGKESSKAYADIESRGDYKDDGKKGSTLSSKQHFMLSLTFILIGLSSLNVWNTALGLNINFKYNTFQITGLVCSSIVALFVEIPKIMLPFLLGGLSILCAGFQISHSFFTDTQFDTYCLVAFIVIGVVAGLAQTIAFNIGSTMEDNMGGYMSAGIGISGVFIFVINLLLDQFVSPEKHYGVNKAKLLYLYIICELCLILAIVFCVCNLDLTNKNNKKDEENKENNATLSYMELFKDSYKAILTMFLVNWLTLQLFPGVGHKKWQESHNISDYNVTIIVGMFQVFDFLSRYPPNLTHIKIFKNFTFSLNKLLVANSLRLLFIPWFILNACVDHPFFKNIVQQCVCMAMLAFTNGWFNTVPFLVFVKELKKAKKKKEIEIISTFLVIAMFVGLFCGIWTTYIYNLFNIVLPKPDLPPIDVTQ
PfCRT^3D7, sequence (Q8IBZ9 59-398): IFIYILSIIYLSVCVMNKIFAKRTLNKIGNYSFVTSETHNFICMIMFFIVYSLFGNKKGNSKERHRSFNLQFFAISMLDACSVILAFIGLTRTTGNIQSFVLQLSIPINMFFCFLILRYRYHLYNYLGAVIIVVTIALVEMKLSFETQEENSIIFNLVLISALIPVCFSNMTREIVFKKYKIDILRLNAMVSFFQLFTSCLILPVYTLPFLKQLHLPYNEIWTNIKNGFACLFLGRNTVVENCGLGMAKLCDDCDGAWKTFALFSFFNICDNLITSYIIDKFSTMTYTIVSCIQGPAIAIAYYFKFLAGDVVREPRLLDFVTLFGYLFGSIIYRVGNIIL

DLHAHKLR [DR-8]
PfCRT-mediated [3H]CQ transport, cis-inhibition (% PfCRTDd2 control) (PfCRT^Dd2 [1]; [test solute] = 0.5 mM): 47 ± 3.9 % PfCRTDd2 control
PfCRT-mediated [3H]CQ transport, cis-inhibition (% PfCRTDd2 control) (PfCRT^Dd2 [1]; [test solute] = 1 mM): 31 ± 2.1 % PfCRTDd2 control
PfCRT-mediated [3H]CQ transport, cis-inhibition (% PfCRTDd2 control) (PfCRT^Dd2 [1]; [test solute] = 2 mM): 12 ± 0.9 % PfCRTDd2 control
PfCRT-mediated [3H]CQ transport, cis-inhibition (% PfCRTEcu1110 control) (PfCRT^Ecu1110 [2]; [test solute] = 0.5 mM): 58 ± 1.2 % PfCRTEcu1110 control
PfCRT-mediated [3H]CQ transport, cis-inhibition (% PfCRTEcu1110 control) (PfCRT^Ecu1110 [2]; [test solute] = 1 mM): 42 ± 2.6 % PfCRTEcu1110 control
PfCRT-mediated [3H]CQ transport, cis-inhibition (% PfCRTEcu1110 control) (PfCRT^Ecu1110 [2]; [test solute] = 2 mM): 28 ± 2.4 % PfCRTEcu1110 control
PfCRT-mediated [3H]CQ transport, trans-stimulation (% PfCRTDd2 control) (PfCRT^Dd2 [3]; [5]): 100 ± 2.9 % PfCRTDd2 control
PfCRT-mediated [3H]CQ transport, trans-stimulation (% PfCRTDd2 control) (PfCRT^Dd2 [3]; [6]): 110 ± 3.7 % PfCRTDd2 control
PfCRT-mediated [3H]CQ transport, trans-stimulation (% PfCRT3D7 control) (PfCRT^3D7; [5]): 130 ± 5.2 % PfCRT3D7 control
PfCRT-mediated [3H]CQ transport, trans-stimulation (% PfCRT3D7 control) (PfCRT^3D7; [6]): 181 ± 5.2 % PfCRT3D7 control
[3H]CQ transport, PfCRT3D7 (% PfCRT3D7 control) (PfCRT^3D7; Experiment 1): 184.56 % PfCRT3D7 control
[3H]CQ transport, PfCRT3D7 (% PfCRT3D7 control) (PfCRT^3D7; Experiment 2): 199.32 % PfCRT3D7 control
[3H]CQ transport, PfCRT3D7 (% PfCRT3D7 control) (PfCRT^3D7; Experiment 3): 173.32 % PfCRT3D7 control
[3H]CQ transport, PfCRT3D7 (% PfCRT3D7 control) (PfCRT^3D7; Experiment 4): 194.32 % PfCRT3D7 control
PfCRT-mediated [3H]CQ transport, trans-stimulation (% PfCRTEcu1110 control) (PfCRT^Ecu1110 [4]; [5]): 130 ± 3.3 % PfCRTEcu1110 control
PfCRT-mediated [3H]CQ transport, trans-stimulation (% PfCRTEcu1110 control) (PfCRT^Ecu1110 [4]; [6]): 139 ± 3.7 % PfCRTEcu1110 control
[3H]CQ transport, PfNT1 (% PfCRTDd2 control) (PfNT1; Experiment 1): 3.43 % PfCRTDd2 control
[3H]CQ transport, PfNT1 (% PfCRTDd2 control) (PfNT1; Experiment 2): 3.47 % PfCRTDd2 control
[3H]CQ transport, PfNT1 (% PfCRTDd2 control) (PfNT1; Experiment 3): 3.21 % PfCRTDd2 control
[3H]CQ transport, PfNT1 (% PfCRTDd2 control) (PfNT1; Experiment 4): 3.51 % PfCRTDd2 control
